Columns and labels:
Sorcin [1] = molecular target: T1, Sorcin (Homo sapiens, UniProt P30626); test: SPR, immobilized Sorcin, one-site fit; format: binding
T1 construct: gene SRI; full-length wild type; immobilized by amine coupling for SPR; homodimer
T1 sequence (P30626 1-198): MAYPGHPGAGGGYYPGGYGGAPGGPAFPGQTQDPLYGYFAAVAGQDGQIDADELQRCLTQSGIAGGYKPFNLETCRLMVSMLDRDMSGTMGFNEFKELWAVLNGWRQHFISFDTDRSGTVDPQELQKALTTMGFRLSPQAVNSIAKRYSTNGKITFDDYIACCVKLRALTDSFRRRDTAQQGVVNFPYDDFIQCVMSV

[2] = molecular target: T2, Sorcin calcium-binding domain (SCBD) (Homo sapiens, UniProt P30626); test: intrinsic tryptophan/tyrosine fluorescence quenching titration (ex […] nm), two-site fit; conditions: Tris-HCl 10 mM pH 7.5, 0.5 uM EDTA, 25 C; stronger of two sites; unreliable (KD1 below protein concentration, large errors)
T2 construct: gene SRI; dimer
T2 sequence (P30626 32-198): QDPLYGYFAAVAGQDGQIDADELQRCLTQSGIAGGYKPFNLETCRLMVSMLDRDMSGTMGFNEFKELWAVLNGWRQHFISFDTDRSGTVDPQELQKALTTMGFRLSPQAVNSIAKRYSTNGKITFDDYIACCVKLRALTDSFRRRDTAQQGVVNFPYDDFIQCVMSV

Sorcin [3] = molecular target: T1, Sorcin; test: SPR (OneStep), immobilized Sorcin; format: binding; conditions: HEPES 20 mM pH 7.4, NaCl 150 mM, 2% DMSO, 25 C; CaCl2 or EDTA not told

Row | SMILES | Kd (Sorcin [3]) | also measured
1 | [NH2][Pt]([NH2])([Cl])[Cl] [cisplatin] | – | Kd (Sorcin [1]): 1700 nM
2 | COc1cccc2c1C(=O)c1c(O)c3c(c(O)c1C2=O)C[C@@](O)(C(=O)CO)C[C@@H]3O[C@H]1C[C@H](N)[C@H](O)[C@H](C)O1 [doxorubicin] | – | affinity constant [2]: 1.4 ± 1 nM
3 | CC(=O)O[C@H]1C(=O)[C@@]2(C)[C@H]([C@H](OC(=O)c3ccccc3)[C@]3(O)C[C@H](OC(=O)[C@H](O)[C@@H](NC(=O)c4ccccc4)c4ccccc4)C(C)=C1C3(C)C)[C@]1(OC(C)=O)CO[C@@H]1C[C@@H]2O [paclitaxel] | Sorcin is able to bind doxorubicin, paclitaxel and vinblastine, with high affinity | –
4 | CC[C@]1(O)C[C@@H]2CN(CCc3c([nH]c4ccccc34)[C@@](C(=O)OC)(c3cc4c(cc3OC)N(C)[C@H]3[C@@](O)(C(=O)OC)[C@H](OC(C)=O)[C@]5(CC)C=CCN6CC[C@]43[C@@H]65)C2)C1 [vinblastine] | Sorcin is able to bind doxorubicin, paclitaxel and vinblastine, with high affinity | –

From publication PMC5550883, “Binding of doxorubicin to Sorcin impairs cell death and increases drug resistance in cancer cells” (Cell Death & Disease, 2017)
